Laboratory results from PubChem BioAssay AID330 (DTP/NCI, 2004).
Several values for one entry are separate records, joined by “and”; a condition that tells them apart may be missing. Identical values can stand only once. Toxic doses and inconclusive results are not listed. Peptide text beside a SMILES is read from it. * marks the point of attachment. Cbz = O=C(OCc1ccccc1)*; Bn = c1ccc(C*)cc1

Tested on: P388 leukemia ip, CD2F1 mice, survival T/C
Assay: NCI In Vivo Anticancer Drug Screen. Data for tumor model P388 Leukemia (intraperitoneal) in CD2F1 (CDF1) mice
Conditions: endpoint: median survival time, higher = longer survival
In short: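 Mice carrying the transplanted tumor received test compound or vehicle. Survival was recorded in each group, and the value is the treated-group measurement divided by that of the vehicle-treated control group.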

[1] = dose: 50.0 mg/kg/injection, schedule: Q01DX005 (ip), vehicle: Klucel (hydroxypropylcellulose) (HPC)
[2] = dose: 100.0 mg/kg/injection, schedule: Q01DX005 (ip), vehicle: Klucel (hydroxypropylcellulose) (HPC)
[3] = dose: 200.0 mg/kg/injection, schedule: Q01DX005 (ip), vehicle: Klucel (hydroxypropylcellulose) (HPC)
[4] = dose: 25.0 mg/kg/injection, schedule: Q01DX005 (ip), vehicle: Klucel (hydroxypropylcellulose) (HPC)
[5] = dose: 50.0 mg/kg/injection, schedule: Q01DX005 (ip), vehicle: saline with Tween-80
[6] = dose: 100.0 mg/kg/injection, schedule: Q01DX005 (ip), vehicle: saline with Tween-80
[7] = dose: 50.0 mg/kg/injection, schedule: Q01DX009 (ip), vehicle: saline
[8] = dose: 100.0 mg/kg/injection, schedule: Q01DX009 (ip), vehicle: saline
[9] = dose: 200.0 mg/kg/injection, schedule: Q01DX009 (ip), vehicle: saline
[10] = dose: 400.0 mg/kg/injection, schedule: Q01DX009 (ip), vehicle: saline
[11] = dose: 50.0 mg/kg/injection, schedule: Q01DX009 (ip), vehicle: saline with Tween-80
[12] = dose: 100.0 mg/kg/injection, schedule: Q01DX009 (ip), vehicle: saline with Tween-80
[13] = dose: 200.0 mg/kg/injection, schedule: Q01DX009 (ip), vehicle: saline with Tween-80
[14] = dose: 100.0 mg/kg/injection, schedule: Q04DX002 (ip), vehicle: saline with Tween-80
[15] = dose: 200.0 mg/kg/injection, schedule: Q04DX002 (ip), vehicle: saline with Tween-80
[16] = dose: 400.0 mg/kg/injection, schedule: Q04DX002 (ip), vehicle: saline with Tween-80
[17] = dose: 60.0 mg/kg/injection, schedule: Q01DX005 (ip), vehicle: saline with Tween-80
[18] = dose: 120.0 mg/kg/injection, schedule: Q01DX005 (ip), vehicle: saline with Tween-80
[19] = dose: 240.0 mg/kg/injection, schedule: Q01DX005 (ip), vehicle: saline with Tween-80
[20] = dose: 6.25 mg/kg/injection, schedule: Q01DX009 (ip), vehicle: saline

`CCOC(=O)CNC(=O)C(CSCc1ccccc1)NC(=O)C(NC(=O)OCc1ccccc1)C(C)C` (stereo not drawn) (Cbz-Val-Cys(Bn)-Gly-OEt; configuration not given here) was tested, and the T/C [1] was 98 % of control, the T/C [2] was 100 % of control and the T/C [3] was 88 % of control.
In the case of `[CH3][Sn]1([CH3])[O]C2C(O)OC(CO)C(O)C2[O]1` (stereo not drawn), the T/C (dose: 6.25 mg/kg/injection, schedule: Q01DX005 (ip), vehicle: Klucel (hydroxypropylcellulose) (HPC)) is reported as 108 % of control and 113 % of control, the T/C (dose: 12.5 mg/kg/injection, schedule: Q01DX005 (ip), vehicle: Klucel (hydroxypropylcellulose) (HPC)) is reported as 110 % of control and 111 % of control (2×) and the T/C [4] is reported as 109 % of control and 120 % of control and 121 % of control.
In the case of `CC(C)(C)C(=O)C1C(=O)c2ccccc2C1=O`, the T/C (dose: 1.56 mg/kg/injection, schedule: Q04DX003 (ip), vehicle: Klucel (hydroxypropylcellulose) (HPC)) is reported as 98 % of control and the T/C (dose: 3.12 mg/kg/injection, schedule: Q04DX003 (ip), vehicle: Klucel (hydroxypropylcellulose) (HPC)) is reported as 89 % of control.
With `C/C=C1/C(=O)O[C@]23C=C[C@@H]4C(C(=O)OC)=CO[C@H](O[C@@H]12)[C@@H]43` the T/C (dose: 1.25 mg/kg/injection, schedule: Q01DX009 (ip), vehicle: Klucel (hydroxypropylcellulose) (HPC)) was 96 % of control, the T/C (dose: 2.5 mg/kg/injection, schedule: Q01DX009 (ip), vehicle: Klucel (hydroxypropylcellulose) (HPC)) was 98 % of control and the T/C (dose: 5.0 mg/kg/injection, schedule: Q01DX009 (ip), vehicle: Klucel (hydroxypropylcellulose) (HPC)) was 102 % of control. For the same compound, the T/C (dose: 10.0 mg/kg/injection, schedule: Q01DX009 (ip), vehicle: Klucel (hydroxypropylcellulose) (HPC)) was 109 % of control.
For `C/C(=C\c1ccc(Cl)cc1)C(=O)N1CCN(c2ccccc2)CC1`, the T/C [1] was 105 % of control, the T/C [2] was 91 % of control and the T/C [3] was 96 % of control.
With `COC(=O)C(C)n1c(C)csc1=S` (stereo not drawn) the T/C [5] was 103 % of control and the T/C [6] was 98 % of control.
`O=C(OC[P+](c1ccccc1)(c1ccccc1)c1ccccc1)c1ccccc1` was tested, and the T/C [7] was 89 % of control.
In the case of `CNCC(=O)Nc1ccc2c(c1)C(=O)c1ccc(NC(=O)CNC)cc1C2=O`, the T/C (dose: 94.75 mg/kg/injection, schedule: Q01DX001 (ip), vehicle: suspension in saline) is reported as 110 % of control.
In the case of `CCOC(=O)c1c(Nc2ccccc2O)oc2ccccc12`, the T/C (dose: 100.0 mg/kg/injection, schedule: Q04DX003 (ip), vehicle: Klucel (hydroxypropylcellulose) (HPC)) is reported as 98 % of control, the T/C (dose: 200.0 mg/kg/injection, schedule: Q04DX003 (ip), vehicle: Klucel (hydroxypropylcellulose) (HPC)) is reported as 92 % of control and the T/C (dose: 400.0 mg/kg/injection, schedule: Q04DX003 (ip), vehicle: Klucel (hydroxypropylcellulose) (HPC)) is reported as 95 % of control.
`COC1OC(CO)C(O)C(NC(=O)N(C)N=O)C1O` (stereo not drawn) was tested, and the T/C [8] was 169 % of control and 187 % of control, the T/C [9] was 218 % of control and 232 % of control and the T/C [10] was 105 % of control and 117 % of control.
For `CCCCC(CC)COCCCNCC(=O)O` (stereo not drawn), the T/C (dose: 60.0 mg/kg/injection, schedule: Q01DX005 (ip), vehicle: saline) was 102 % of control and the T/C (dose: 120.0 mg/kg/injection, schedule: Q01DX005 (ip), vehicle: saline) was 107 % of control.
`CC(C)(C)C(=O)CC(Cc1nccc2ccccc12)c1ccccc1` (stereo not drawn) was tested, and the T/C [11] was 106 % of control, the T/C [12] was 104 % of control and the T/C [13] was 103 % of control.
With `CC(C)(C)OP(=S)(OC(C)(C)C)OC(C)(C)C` the T/C [14] was 96 % of control, the T/C [15] was 108 % of control and the T/C [16] was 106 % of control.
With `Cc1nc2ccccc2c(=O)n1-c1nc2ccccc2s1` the T/C [17] was 92 % of control, the T/C [18] was 89 % of control and 90 % of control and the T/C [19] was 103 % of control.
`O=c1c2[nH]c3ccccc3sc=2c(=O)n1-c1cccc(Cl)c1` was tested, and the T/C [5] was 102 % of control, the T/C [6] was 102 % of control and the T/C (dose: 200.0 mg/kg/injection, schedule: Q01DX005 (ip), vehicle: saline with Tween-80) was 105 % of control.
`O=S(=O)(OI(O)c1ccccc1)c1ccc(Cl)cc1` was tested, and the T/C (dose: 12.5 mg/kg/injection, schedule: Q01DX009 (ip), vehicle: water) was 101 % of control, the T/C (dose: 25.0 mg/kg/injection, schedule: Q01DX009 (ip), vehicle: water) was 105 % of control and the T/C (dose: 50.0 mg/kg/injection, schedule: Q01DX009 (ip), vehicle: water) was 109 % of control and 114 % of control.
With `CCN(CC)CCNc1ccc(C)c2sc3c(OC)cccc3c(=O)c12` the T/C [11] was 113 % of control, the T/C [12] was 100 % of control and the T/C [13] was 116 % of control.
With `O=C(Nc1ccc2c(c1)Cc1cc(NC(=O)C34CC5CC(CC(C5)C3)C4)ccc1-2)C12CC3CC(CC(C3)C1)C2` the T/C [14] was 88 % of control, the T/C [15] was 89 % of control and the T/C [16] was 92 % of control.
`CCOC(=O)c1cc(CC)[nH]c(=O)c1C#N` was tested, and the T/C [4] was 92 % of control, the T/C [1] was 98 % of control and the T/C [2] was 100 % of control.
`COc1cc(CCN)ccc1O` was tested, and the T/C [8] was 104 % of control and 98 % of control, the T/C [9] was 100 % of control and 102 % of control and the T/C [10] was 100 % of control and 107 % of control. The T/C (dose: 600.0 mg/kg/injection, schedule: Q01DX009 (ip), vehicle: saline) was 102 % of control and 114 % of control.
`O=[N+]([O-])C1=CC(=N/Cl)/C=CC/1=N/Cl` was tested, and the T/C (dose: 12.5 mg/kg/injection, schedule: Q01DX005 (ip), vehicle: saline) was 105 % of control, the T/C (dose: 25.0 mg/kg/injection, schedule: Q01DX005 (ip), vehicle: saline) was 100 % of control and the T/C (dose: 50.0 mg/kg/injection, schedule: Q01DX005 (ip), vehicle: saline) was 101 % of control and 97 % of control. The T/C (dose: 100.0 mg/kg/injection, schedule: Q01DX005 (ip), vehicle: saline) was 106 % of control and the T/C (dose: 200.0 mg/kg/injection, schedule: Q01DX005 (ip), vehicle: saline) was 116 % of control.
With `O=C(OC1(c2nccc3ccccc23)CCCN(Cc2ccccc2)C1)c1ccccc1` (stereo not drawn) the T/C [11] was 106 % of control, the T/C [12] was 109 % of control and the T/C [13] was 104 % of control.
For `N=C(N)SCc1ccc([N+](=O)[O-])cc1`, the T/C (dose: 25.0 mg/kg/injection, schedule: Q01DX009 (ip), vehicle: Klucel (hydroxypropylcellulose) (HPC)) was 102 % of control and the T/C (dose: 50.0 mg/kg/injection, schedule: Q01DX009 (ip), vehicle: Klucel (hydroxypropylcellulose) (HPC)) was 107 % of control.
`C[CH2][Sn]([CH2]C)([N]=C=S)[N]=C=S` was tested, and the T/C (dose: 3.12 mg/kg/injection, schedule: Q01DX009 (ip), vehicle: saline) was 99 % of control and 100 % of control and the T/C [20] was 86 % of control and 93 % of control.
For `CC(C)OP(=O)(NNP(=O)(OC(C)C)OC(C)C)OC(C)C`, the T/C [7] was 104 % of control, the T/C [8] was 105 % of control and the T/C [9] was 114 % of control.
`Cc1ccc(S(=O)(=O)c2ccc(Sc3cccc[n+]3[O-])c3nonc23)cc1` was tested, and the T/C [20] was 103 % of control, the T/C (dose: 12.5 mg/kg/injection, schedule: Q01DX009 (ip), vehicle: saline) was 116 % of control and the T/C (dose: 12.5 mg/kg/injection, schedule: Q01DX009 (ip), vehicle: suspension in saline) was 110 % of control. For the same compound, the T/C (dose: 25.0 mg/kg/injection, schedule: Q01DX009 (ip), vehicle: saline) was 100 % of control, the T/C (dose: 25.0 mg/kg/injection, schedule: Q01DX009 (ip), vehicle: suspension in saline) was 121 % of control and the T/C [7] was 103 % of control.
For `COc1ccc(/C(O)=C/c2nc3ccc([N+](=O)[O-])cc3[nH]c2=O)cc1`, the T/C (dose: 60.0 mg/kg/injection, schedule: Q01DX005 (ip), vehicle: Klucel + Tween-80) was 97 % of control, the T/C (dose: 120.0 mg/kg/injection, schedule: Q01DX005 (ip), vehicle: Klucel + Tween-80) was 94 % of control and the T/C (dose: 240.0 mg/kg/injection, schedule: Q01DX005 (ip), vehicle: Klucel + Tween-80) was 95 % of control.
`O=C(Nc1ccc(Cl)cc1)Nc1nnc2nc(CC(=O)c3ccccc3)c(=O)[nH]n12` was tested, and the T/C [17] was 98 % of control, the T/C [18] was 99 % of control and the T/C [19] was 91 % of control.
For `O=C(Nc1ccc(Nc2ccncc2)cc1)c1ccc(N2C(=O)c3ccccc3C2=O)cc1[N+](=O)[O-]`, the T/C [11] was 98 % of control, the T/C [12] was 95 % of control and the T/C [13] was 95 % of control.
`NC(CC(=O)O)C(=O)OCc1cccc(N=Nc2ccccc2)c1` (stereo not drawn) was tested, and the T/C (dose: 50.0 mg/kg/injection, schedule: Q04DX003 (ip), vehicle: saline with Tween-80) was 99 % of control, the T/C (dose: 100.0 mg/kg/injection, schedule: Q04DX003 (ip), vehicle: saline with Tween-80) was 90 % of control and the T/C (dose: 200.0 mg/kg/injection, schedule: Q04DX003 (ip), vehicle: saline with Tween-80) was 93 % of control.
